The values that follow are results of earlier work, collected in US8163703B2, “Hepatitis C therapies” (BioCryst Pharmaceuticals, Inc., priority 2005, dated 2012).

In this data set the test system is HCV. The note with it: ribavirin alone.

For the compound `NC(=O)c1ncn([C@@H]2O[C@H](CO)[C@@H](O)[C@H]2O)n1` [Ribavirin, 1-β-D-ribofuranosyl-1-1,2,4-triazole-3-carboxamide], the “patients in whom serum amino transferase levels are reduced to normal” value is reported as 40%.
